Test results reported in patent publication US20060079534A1, “Cell division inhibitor and a production method thereof” (priority 2000, published 2006).
In brackets after ≈: the same amount, converted by molar mass.

What was measured:
[1] = system: dehydrogenase (cell-free extract); test: Amount of dehydrogenation of each substrate by enzyme (change in absorbance at 600 nm due to coenzyme); type: biochemical, Streptomyces albulus KO23; settings: relative value of change in absorbance at 600 nm, CFL set to 100; substrate 0.5 mM, 37° C.
[2] = system: cleavage division of Hemicentrotus pulcherrimus; test: Inhibition test for cell division (cleavage division); type: in vivo; settings: observed 4 hours after fertilization; * = no activity at the indicated concentration
Description: (§1) Physiological activity of each dehydrodiketopiperazine will be described below. Each dehydrodiketopiperazine was tested for its inhibitory activity against cleavage division of Hemicentrotus pulcherrimus, Scaphechinus mirabilis and Temnopleurus toreumaticus as a cell division inhibitory activity. The test was carried out as described in The Journal of Antibiotics, Vol. 52, p. 1017 (1999). However, stages at which the first cleavage division occurs vary among sea urchins, so that inhibition of the cleavage division was observed after 4 hours of fertilization in the tests using Hemicentrotus pulcherrimus and Scaphechinus mirabilis, and after one hour of fertilization in the test using Temnopleurus toreumaticus, respectively.

[3] = system: cleavage division of Scaphechinus mirabilis; test: as above; type: in vivo; settings: observed 4 hours after fertilization; * = no activity at the indicated concentration
Description: as §1

[4] = system: cleavage division of Temnopleurus toreumaticus; test: as above; type: in vivo; settings: observed one hour after fertilization; * = no activity at the indicated concentration
Description: as §1

tumor = settings: cited from earlier work
[5] = system: cancer cell transplanted model animal; settings: cited from earlier work
tubulin = settings: cited from earlier work
[6] = system: sea urchin embryo division; settings: Kanzaki et al. 1999; cited from earlier work
[7] = system: cleavage division of Hemicentrotus pulcherrimus, Scaphechinus mirabilis and Temnopleurus toreumaticus; test: Comparison of cell division inhibitory activity across the sea urchin tests; type: in vivo, sea urchins; settings: ratio of MIC values
Description: as §1

bacteria = settings: Fukushima et al. 1973; cited from earlier work
pronuclear fusion = settings: Kobayashi et al. 1989; cited from earlier work

CSCCC1NC(=O)C(CCSC)NC1=O (centres unmarked) [CMM]
Amount of dehydrogenation [1]: 27

O=C1N[C@@H](Cc2c[nH]cn2)C(=O)N[C@H]1Cc1ccccc1 [CFH, cyclophenylalanylhistidyl]
MIC Hemicentrotus pulcherrimus [2]: >25* μg/ml
MIC Scaphechinus mirabilis [3]: >25* μg/ml
MIC Temnopleurus toreumaticus [4]: >25* μg/ml
Amount of dehydrogenation [1]: 44

C=CC(C)(C)c1[nH]cnc1C=C1NC(=O)C(Cc2ccccc2)NC1=O (single isomer, unassigned; (-)) [(−)-phenylahistin, 3-{[5-(1,1-dimethyl-2-propenyl)imidazole-4-yl]methylene}-6-benzylpiperazine-2,5-dione]
MIC Hemicentrotus pulcherrimus [2]: 0.39 µg/mL (≈ 1.11 µM)
MIC Scaphechinus mirabilis [3]: 1.6 µg/mL (≈ 4.57 µM)
MIC Temnopleurus toreumaticus [4]: 0.2 µg/mL (≈ 0.571 µM)
antitumor activity relative to (+)-phenylahistin (tumor; times stronger than (+)-phenylahistin, approx.): 30-100 times
antitumor effect [5]: a certain degree of antitumor activity
inhibition of the polymerization of tubulin (tubulin): inhibits the polymerization of tubulin

C=CC(C)(C)c1[nH]cnc1/C=c1\[nH]c(=O)/c(=C/c2ccccc2)[nH]c1=O [dehydrophenylahistin, (Z, Z)-dehydrophenylahistin]
MIC Hemicentrotus pulcherrimus [2]: 0.00038 µg/mL (≈ 0.00109 µM)
MIC Scaphechinus mirabilis [3]: 0.0061 µg/mL (≈ 0.0175 µM)
MIC Temnopleurus toreumaticus [4]: 0.0061 µg/mL (≈ 0.0175 µM)

O=c1[nH]c(=Cc2ccccc2)c(=O)[nH]c1=Cc1ccccc1 [tetradehydrocyclo (Phe-Phe)]
sea urchin embryo division inhibitory activity [6]: exhibits sea urchin embryo division inhibitory activity

O=C(O)CCC1NC(=O)C(CCC(=O)O)NC1=O (centres unmarked) [CEE]
Amount of dehydrogenation [1]: 14

O=C(O)CC1NC(=O)C(CC(=O)O)NC1=O (centres unmarked) [CDD]
Amount of dehydrogenation [1]: 14

O=c1[nH]/c(=C\c2c[nH]cn2)c(=O)[nH]/c1=C\c1ccccc1 [(Z,Z)-tetradehydro-CFH, Z-tetradehydrocyclophenylalanylhistidyl]
MIC Hemicentrotus pulcherrimus [2]: 0.78 µg/mL (≈ 2.78 µM)
MIC Scaphechinus mirabilis [3]: 1.6 µg/mL (≈ 5.71 µM)
MIC Temnopleurus toreumaticus [4]: 1.6 µg/mL (≈ 5.71 µM)
inhibitory activity compared with CFH [7]: ≥ 15 fold

C=CC(C)(C)c1[nH]cnc1C=C1NC(=O)C(Cc2ccccc2)NC1=O (single isomer, unassigned; (+)) [(+)-phenylahistin, 3-{[5-(1,1-dimethyl-2-propenyl)imidazole-4-yl]methylene}-6-benzylpiperazine-2,5-dione]
MIC Hemicentrotus pulcherrimus [2]: 13 µg/mL (≈ 37.1 µM)
MIC Scaphechinus mirabilis [3]: >13* μg/ml
MIC Temnopleurus toreumaticus [4]: 6.3 µg/mL (≈ 18 µM)

CC(C)C[C@@H]1NC(=O)[C@H](Cc2ccccc2)NC1=O [CFL]
Amount of dehydrogenation [1]: 100

CC(C)CC1NC(=O)C(Cc2ccc(O)cc2)NC1=O (centres unmarked) [CLY]
Amount of dehydrogenation [1]: 14

CC(C)/C=c1\[nH]c(=O)/c(=C/c2ccccc2)[nH]c1=O [albonoursin, 3-(Z)-benzylidene-6-(Z)isobutylidene-2,5-piperazine dione]
MIC Hemicentrotus pulcherrimus [2]: 6.3 µg/mL (≈ 24.6 µM)
MIC Scaphechinus mirabilis [3]: >13* μg/ml
MIC Temnopleurus toreumaticus [4]: >25* μg/ml
antibacterial activity (bacteria): antibacterial activity
antitumor activity (tumor; Fukushima et al. 1973): has an antitumor activity
inhibition of pronuclear fusion (pronuclear fusion): acts to inhibit the pronuclear fusion
